Measurements: patent US20100267561A1, “HERBICIDAL PYRIDAZINONE DERIVATIVES” (priority 2007, published 2010)

Experiments:
Format in all cases: in vivo
[1] = test system: barnyardgrass (Echinochloa crus-galli); assay: Test A pre-/postemergence plant response
Outline: (§1)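 Scores reflect visual plant injury relative to untreated controls on a 0–100 scale, recorded approximately 10 days after simultaneous preemergence soil spraying and postemergence spraying of one- to two-leaf seedlings grown in loam–sand.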

[2] = test system: giant foxtail (Setaria faberi); assay: Test A pre-/postemergence plant response
Outline: as §1

[3] = test system: large crabgrass (Digitaria sanguinalis); assay: Test A pre-/postemergence plant response
Outline: as §1

[4] = test system: morningglory (Ipomoea coccinea); assay: Test A pre-/postemergence plant response
Outline: as §1

[5] = test system: pigweed (Amaranthus retroflexus); assay: Test A pre-/postemergence plant response
Outline: as §1

[6] = test system: velvetleaf (Abutilon theophrasti); assay: Test A pre-/postemergence plant response
Outline: as §1

[7] = test system: wheat (Triticum aestivum); assay: Test A pre-/postemergence plant response
Outline: as §1

[8] = test system: canarygrass (Phalaris minor); assay: Test B postemergence plant response; details: for Plant response rating, Canarygrass: Postemergence, scale 0 to 100
Outline: (§2)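 Following treatment of plants 2 to 18 cm high after emergence, pots were held under glass for 13 to 15 days; efficacy was then graded visually, 100 denoting complete control and a dash no test result.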

[9] = test system: chickweed (Stellaria media); assay: Test B postemergence plant response; details: for Plant response rating, Chickweed: Postemergence
Outline: as §2

[10] = test system: windgrass (Apera spica-venti); assay: Test B postemergence plant response; details: for Windgrass plant response rating: postemergence, 0-100 scale; for Plant response rating, Windgrass: Postemergence
Outline: as §2

[11] = test system: winter barley (Hordeum vulgare); assay: Test B postemergence plant response; details: for Plant response rating, Barley: Postemergence, scale 0 to 100, 0 no effect, 100 complete control
Outline: as §2

[12] = test system: barnyardgrass (Echinochloa crus-galli); assay: Test B flooded paddy test plant response
Outline: (§3)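 Step one: raise plants to 2 leaves. Step two: flood pots 3 cm over the soil and apply compound into the water, keeping this depth. Step three: after 13–15 greenhouse days, score visually versus controls, 0–100, where 100 means complete control.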

[13] = test system: ducksalad (Heteranthera limosa); assay: Test B flooded paddy test plant response
Outline: as §3

[14] = test system: umbrella sedge (Cyperus difformis); assay: Test B flooded paddy test plant response
Outline: as §3

[15] = Postemergence, 31 g ai/ha, 0 to 100 scale, 0 no effect, 100 complete control
[16] = Postemergence, 125 g ai/ha, 0 to 100 scale, 0 no effect, 100 complete control
[17] = Preemergence, 31 g ai/ha, 0 to 100 scale, 0 is no effect, 100 is complete control
[18] = Preemergence, 125 g ai/ha, 0 to 100 scale (0 no effect, 100 complete control)
[19] = 8 g ai/ha, postemergence, 0-100 scale
[20] = 62 g ai/ha, scale 0 to 100, 0 no effect, 100 complete control
[21] = Flood (flooded paddy test), 62 g ai/ha, scale 0 to 100, 0 no effect, 100 complete control
[22] = Flood (flooded paddy test), 125 g ai/ha, scale 0 to 100, 0 no effect, 100 complete control
[23] = Flood (flooded paddy test), 250 g ai/ha, scale 0 to 100, 0 no effect, 100 complete control
[24] = Flood, 31 g ai/ha, scale 0 to 100

## CCc1cc(-c2ccc(C(F)(F)F)cc2)nn1-c1c(O)c(OC)nn(C)c1=O [Compound 66]
[1]; [15]
  Plant response rating, Barnyardgrass: 100
[1]; [16]
  Plant response rating, Barnyardgrass: 100
[1]; [17]
  Plant response rating, Barnyardgrass: 10
[1]; [18]
  Plant response rating, Barnyardgrass: 100
[2]; [15]
  Plant response rating, Foxtail, Giant: 100
[2]; [16]
  Plant response rating, Foxtail, Giant: 100
[2]; [17]
  Plant response rating, Foxtail, Giant: 90
[2]; [18]
  Plant response rating, Foxtail, Giant: 100
[3]; [15]
  Plant response rating, Crabgrass, Large: 100
[3]; [16]
  Plant response rating, Crabgrass, Large: 100
[3]; [17]
  Plant response rating, Crabgrass, Large: 0
[3]; [18]
  Plant response rating, Crabgrass, Large: 70
[4]; [15]
  Plant response rating, Morningglory: 0
[4]; [16]
  Plant response rating, Morningglory: 0
[4]; [17]
  Plant response rating, Morningglory: 0
[4]; [18]
  Plant response rating, Morningglory: 0
[5]; [15]
  Plant response rating, Pigweed: 0
[5]; [16]
  Plant response rating, Pigweed: 0
[5]; [17]
  Plant response rating, Pigweed: 0
[5]; [18]
  Plant response rating, Pigweed: 0
[6]; [15]
  Plant response rating, Velvetleaf: 0
[6]; [16]
  Plant response rating, Velvetleaf: 0
[6]; [17]
  Plant response rating, Velvetleaf: 0
[6]; [18]
  Plant response rating, Velvetleaf: 0
[7]; [15]
  Plant response rating, Wheat: 90
[7]; [16]
  Plant response rating, Wheat: 100
[7]; [17]
  Plant response rating, Wheat: 60
[7]; [18]
  Plant response rating, Wheat: 90
[8]; [19]
  Canarygrass plant response rating: 40
[8]; 16 g ai/ha
  Plant response rating, Canarygrass: 90
[8]; 31 g ai/ha
  Plant response rating, Canarygrass: 95
[9]; [19]
  Chickweed plant response rating: 0
[9]; 16 g ai/ha, scale 0 to 100
  Plant response rating, Chickweed: 0
[9]; 31 g ai/ha, scale 0 to 100
  Plant response rating, Chickweed: 0
[9]; [20]
  Plant response rating, Chickweed: 0
[10]; 8 g ai/ha
  Windgrass plant response rating: 90
[10]; 16 g ai/ha
  Windgrass plant response rating: 100
[10]; 31 g ai/ha, scale 0 to 100
  Plant response rating, Windgrass: 100
[10]; [20]
  Plant response rating, Windgrass: 100
[11]; [19]
  Barley plant response rating: 90
[11]; 16 g ai/ha
  Plant response rating, Barley: 98
[11]; 31 g ai/ha
  Plant response rating, Barley: 100
[12]; [21]
  Plant response rating, Barnyardgrass: 0
[12]; [22]
  Plant response rating, Barnyardgrass: 20
[12]; [23]
  Plant response rating, Barnyardgrass: 20
[12]; [24]
  Plant response rating, Barnyardgrass: 0
[13]; [21]
  Plant response rating, Ducksalad: 0
[13]; [22]
  Plant response rating, Ducksalad: 0
[13]; [23]
  Plant response rating, Ducksalad: 0
[13]; [24]
  Plant response rating, Ducksalad: 0
[14]; [21]
  Plant response rating, Sedge, Umbrella: 0
[14]; [22]
  Plant response rating, Sedge, Umbrella: 0
[14]; [23]
  Plant response rating, Sedge, Umbrella: 0
[14]; [24]
  Plant response rating, Sedge, Umbrella: 0
